US5215916A, “Super glucocorticoid receptors: receptors with increased affinity and specificity for glucocorticoid steriods” (priority 1991, dated 1993)
Where a name gives a salt, the structure may show the parent alone.

Legend:
[1] = system: mouse glucocorticoid receptor; settings: L. I. Smith et al., 1988; cited from earlier work
glucocorticoid receptor = settings: Simons et al., 1987; cited from earlier work
[2] = system: any other steroid receptors; settings: cited from earlier work
glucocorticoid receptors = settings: cited from earlier work
[3] = target: T1, C656G mutant glucocorticoid receptor (Rattus norvegicus, UniProt P06536, C656G/D98G); assay: Competition binding assay with [3H]Dex, COS-7 cytosol, C656G receptor; parameters: Thus the full length receptor was removed from the VARO vector with BamHI and inserted into the SVL vector; expressed in transfected cells; host or cells: COS-7 (cytosol)
T1 sequence (P06536 1-795 D98G/C656G): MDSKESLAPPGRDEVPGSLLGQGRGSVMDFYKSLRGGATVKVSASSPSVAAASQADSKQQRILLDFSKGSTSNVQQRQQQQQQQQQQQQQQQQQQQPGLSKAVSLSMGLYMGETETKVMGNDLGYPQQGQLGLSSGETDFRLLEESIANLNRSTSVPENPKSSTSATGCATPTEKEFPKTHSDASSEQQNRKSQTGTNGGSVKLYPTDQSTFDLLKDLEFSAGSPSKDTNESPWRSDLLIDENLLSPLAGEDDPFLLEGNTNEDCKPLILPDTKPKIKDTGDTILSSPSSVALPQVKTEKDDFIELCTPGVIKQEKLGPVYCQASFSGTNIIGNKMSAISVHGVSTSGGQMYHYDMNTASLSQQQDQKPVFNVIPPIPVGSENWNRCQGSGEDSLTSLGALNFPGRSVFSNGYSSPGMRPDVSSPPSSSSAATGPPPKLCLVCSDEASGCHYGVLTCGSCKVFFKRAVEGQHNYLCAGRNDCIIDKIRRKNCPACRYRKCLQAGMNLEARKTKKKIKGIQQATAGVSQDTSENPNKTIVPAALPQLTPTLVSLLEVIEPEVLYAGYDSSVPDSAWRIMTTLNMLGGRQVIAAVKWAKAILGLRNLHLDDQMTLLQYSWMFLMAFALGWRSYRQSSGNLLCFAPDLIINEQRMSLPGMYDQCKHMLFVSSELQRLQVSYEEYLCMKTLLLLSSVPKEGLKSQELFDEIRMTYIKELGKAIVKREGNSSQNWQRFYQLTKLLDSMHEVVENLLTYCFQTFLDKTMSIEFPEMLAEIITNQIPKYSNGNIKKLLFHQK
Procedure: Monolayer cultures of COS-7 cells were grown in DMEM (Gibco) supplemented with 5% fetal bovine serum (FBS) (Biofluids) at 37° C. in a 5% CO2 incubator. Standard calcium phosphate transfection methods were used to introduce the wild type and mutant receptor expression vectors (pSVL) into COS-7 cells (100 mm plates [Costar] at a cell density of about 10^6 /plate were each treated with 10 μg of plasmid DNA). After ~16 hrs of incubation at 37° C. in a 5% CO2 incubator, the excess calcium phosphate and precipitate were removed by washing with phosphate buffered saline (PBS). The cells were incubated at 37° C. for another ~48 hr in DMEM/ 5% FBS and harvested by trypsinization followed by centrifugation (for 10 min at 1570 ×g) and washing 3 times with PBS. The washed cells were stored at -80° C. until used.
COS-7 cell cytosol containing the steroid-free receptors was prepared by cell lysis at -80° C. and centrifugation at 15,000 ×g and labeled as described for HTC cells (S. S. Simons and P. A. Miller, Biochem 23:6876-6882 (1984)). Briefly, 30% cytosol solutions containing ~21 mM Na2 MoO4 were prepared with three parts COS-7 cell cytosol, 2 parts pH 9.5 TAPS buffer, and 5 parts pH 8.8 TAPS buffer. The total EtOH in each experiment was kept constant and at a level of ≤1%. […] After incubation for 2.5 hr, the [^3 H]Dex-Mes-labeled solutions were quick-frozen at -78° C. for subsequent SDS-polyacrylamide gel electrophoresis analysis. The specifically bound [^3 H]Dex was determined by first adding a 10% dextran-coated charcoal solution (added volume =20% of reaction solution volume) to remove free steroid and then subtracting the nonspecific binding seen in the presence of excess nonradioactive Dex.
Duplicate aliquots (72 μl) of COS-7 cell cytosol (33.5% in pH 8.8 TAPS/27 mM Na2 MoO4 buffer) were treated with 4 μl each of [^3 H]Dex (in pH 8.8 TAPS buffer) and various concentrations of non-radioactive competing steroid (in 20% EtOH in pH 8.8 TAPS buffer) (final concentration of [^3 H]Dex ≈3 ×10^-8 M). The average specific binding was determined after 2.5 or 24 hr of incubation as described above, expressed as percentage of the non-competed control and plotted versus the log10 of the concentration of the competing steroid.
The specificity of steroid binding was determined by Rodbard correction (Rodbard, 1973) of the data from a competition binding assay (S. S. Simons et al., Biochem. Biophys. Res. Comm. 86:793-800 (1979); Miller and Simons, 1988). The initial data were collected from 2.5 hr binding assays because of concerns about the stability of the receptors over longer times.

[4] = target: T1, C656G mutant glucocorticoid receptor; settings: CV-1 cells, FIG. 1; C656G vs wild type
Procedure: The biological activity of wild type (.quadrature.) or C656G mutant ( ) receptors was determined in CV-1 cells as described in the Example Section. The determined amounts of CAT activity from each plate were then plotted as a function of the concentration of dexamethasone added to each.
Subconfluent cultures of CV-1 cells were co-transfected, using the standard calcium phosphate procedure, with 0.2 μg VARO receptor expression vector (containing the mutant receptor driven by the SV40 enhancer and the α-globulin promoter) and 1 μg G46TCO reporter vector (CAT gene driven by the thymidine kinase promoter [to -109 bp] and a 46 bp synthetic GRE derived from the murine mammary tumor virus long terminal repeat) for each 60 mm dish. Cells were incubated overnight at 37° C. in a 5% CO2 incubator with the DNA precipitates, after which they were washed twice with PBS, and fresh medium (Dulbecco's modified Eagle's medium H-16 supplemented with 5% fetal calf serum) was added together with the indicated hormone.
After an additional 24 hr, at 37° C. in a 5% CO2 incubator, extracts were prepared by four freeze-thaw cycles (-75° C., 65° C.) and centrifuged for 5 min at 15,000 xg. Heat-treated extracts (5 min, 65° C.) were normalized for protein content and the amount of expressed CAT enzyme activity was determined by a non-chromatographic assay (M. J. Sleigh, Anal. Biochem. 156:251-256 (1986)).

SMILES: C[C@@H]1C[C@H]2[C@@H]3CCC4=CC(=O)C=C[C@]4(C)[C@@]3(F)[C@@H](O)C[C@]2(C)[C@@]1(O)C(=O)COS(C)(=O)=O [Dex-Mes, dexamethasone mesylate]
- labeling of the identical cysteine in mouse receptor by Dex-Mes [1]: also labeled
- covalent labeling of receptor thiol by Dex-Mes (glucocorticoid receptor): covalently label just one thiol in the receptor, i.e., cysteine 656

SMILES: O=[As][O-].[Na+] [arsenite]
- effect on steroid binding activity of other steroid receptors [2]: not of any other steroid receptors
- effect of preincubation of unbound receptors on steroid binding (glucocorticoid receptors): eliminates all steroid binding
- effect on steroid binding activity of glucocorticoid receptors (glucocorticoid receptors): blocks the steroid binding activity of glucocorticoid receptors

SMILES: C[C@@H]1C[C@H]2[C@@H]3CCC4=CC(=O)C=C[C@]4(C)[C@@]3(F)[C@@H](O)C[C@]2(C)[C@@]1(O)C(=O)CO [Dex, dexamethasone]
- greater preference of C656G than wild type receptor for glucocorticoids vs aldosterone and progesterone [3]: 10-19 fold
- lower concentrations for Dex induction of CAT activity with C656G than with wild type receptor [4]: ~ 10 fold
